{"source": "BindingDB's records for patent US12370182", "about": "(Richter Gedeon, 2025)", "molecular_target": "T1, Gamma-aminobutyric acid receptor subunit alpha-5 (Homo sapiens, UniProt P31644)", "T1 sequence (P31644 whole entry)": "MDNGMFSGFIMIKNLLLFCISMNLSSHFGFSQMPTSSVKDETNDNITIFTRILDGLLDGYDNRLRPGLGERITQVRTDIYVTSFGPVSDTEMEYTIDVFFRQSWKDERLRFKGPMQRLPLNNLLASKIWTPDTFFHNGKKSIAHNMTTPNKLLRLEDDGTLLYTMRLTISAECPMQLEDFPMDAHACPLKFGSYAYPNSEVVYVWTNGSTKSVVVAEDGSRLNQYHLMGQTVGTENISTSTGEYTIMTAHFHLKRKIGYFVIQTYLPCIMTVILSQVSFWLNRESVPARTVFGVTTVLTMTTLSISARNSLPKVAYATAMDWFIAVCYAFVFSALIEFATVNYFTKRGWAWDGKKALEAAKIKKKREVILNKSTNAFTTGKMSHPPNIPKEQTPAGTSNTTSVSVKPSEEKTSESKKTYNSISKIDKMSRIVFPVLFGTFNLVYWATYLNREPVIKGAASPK", "assay": "Binding Assay", "protocol": "Receptor binding assays were performed in 96-well format in deep-well plates. For each 96-well plate one ampulle of membrane homogenate was thawed and diluted in binding buffer (50 mM Tris pH=7.4, 100 mM KCl) and 200 μL was dispensed into each well. Radioligand [3H]Ro151788 (Perkin Elmer: NET757250UC) was prepared in binding buffer and added to each well in 50 μL volume to give final concentration of 0.5 nM. Test compounds in suitable concentration(s) were added in additional 50 μL. The final assay volume was 300 μL. Incubation was carried out for 60 minutes at 4° C. For non-specific binding 10 μM unlabeled diazepam was used. After incubation samples were filtered over UniFilter GF/B™ using Filtermate Harvester (Perkin Elmer) and washed with 5×1 mL binding buffer. The plate was dried at 40° C. for an hour and 40 μL Microscint (Perkin Elmer) scintillation cocktail was added to each well. The plate was read in Microbeta (Perkin Elmer).", "data": [{"smiles": "Cc1onc(-c2ccc(F)cc2)c1COc1ccc2c(n1)CCN(C(=O)N1CCCCC1)C2", "note": "[US12370182, Example 85]", "values": [{"measurement": "Ki", "value": 36, "unit": "nM"}]}, {"smiles": "Cc1nnn(-c2ccc(F)cc2)c1COc1ccc2c(n1)CN(C(=O)C(F)(F)F)C2", "note": "[US12370182, Example 51]", "values": [{"measurement": "Ki", "value": 31, "unit": "nM"}]}]}
